Earlier results, collected in article PMC6008299, “Impact of race on dose selection of molecular-targeted agents in early-phase oncology trials” (British Journal of Cancer, 2018).
Read-outs that look alike come from different tables or passages of the source. Marks after values point to notes of the source that are not given here.

Experiments:
[1] = system: patients with solid tumours; parameters: method as in PMID 15955900; settings: recommended phase 2 dose; ref [11]–[44]; cited from earlier work
[2] = Asian, at the MTD, ref not given, cited from earlier work
[3] = system: patients with solid tumours; parameters: method as in PMID 15955900; settings: recommended phase 2 dose; ref [11]–[44]; cited from earlier work; remark: listed apart in the source
[4] = system: patients with solid tumours; settings: dose at which PK is compared; ref not given; cited from earlier work
[5] = cited from earlier work
[6] = at the MTD, Day 1, ref not given
[7] = at the MTD, Day 28, ref not given
[8] = at the MTD, Day 15, ref not given
[9] = at the MTD, Day 8, ref not given
[10] = at the MTD, Day 23 or 24, ref not given
[11] = at the MTD, Day 21, ref not given

SMILES: CN(C)C/C=C/C(=O)Nc1cc2c(Nc3ccc(F)c(Cl)c3)ncnc2cc1O[C@H]1CCOC1 [Afatinib]
- RP2D (Japan) [1]: 50 mg QD
- AUC0-24 ([2]; Day 1): 539 ng·h/mL
- T1/2 ([2]; Day 1): 14.8 h
- AUC0-24 ([2]; Day 28): 1010 ng·h/mL
- T1/2 ([2]; Day 28): 33.5 h
- RP2D (Western) [3]: 50 mg QD
- MTD [4]: 50 mg QD
- AUC0-∞ ([5]; Caucasian, at the MTD, Day 1 (footnote *), ref not given): 762* ng·h/mL
- T1/2 [5, 6]: 21.9 h
- Tmax [5, 6]: 5.08 h
- AUC0-24 [5, 7]: 598 ng·h/mL
- T1/2 [5, 7]: 22.3 h
- Tmax [5, 7]: 5.00 h

SMILES: CNC(=O)c1ccccc1Sc1ccc2c(/C=C/c3ccccn3)n[nH]c2c1 [Axitinib]
- RP2D (Japan) [1]: 5 mg BID
- AUC0-24 ([2]; Day 1): 142 ng·h/mL
- Cmax ([2]; Day 1): 17.0 ng/mL
- T1/2 ([2]; Day 1): 4.8 h
- Tmax ([2]; Day 1): 4.10 h
- AUC0-24 ([2]; Day 15): 138 ng·h/mL
- Cmax ([2]; Day 15): 21.4 ng/mL
- T1/2 ([2]; Day 15): 4.04 h
- Tmax ([2]; Day 15): 1.37 h
- RP2D (Western) [3]: 5 mg BID
- MTD [4]: 5 mg BID
- AUC0-24 [5, 6]: 188 ng·h/mL
- Cmax [5, 6]: 22 ng/mL
- T1/2 [5, 6]: 2.3 h
- Tmax [5, 6]: 3.2 h
- AUC0-24 [5, 8]: 258 ng·h/mL
- Cmax [5, 8]: 27 ng/mL
- T1/2 [5, 8]: 2.3 h
- Tmax [5, 8]: 2.4 h

SMILES: Cc1cc(Nc2ncc(Cl)c(Nc3ccccc3S(=O)(=O)C(C)C)n2)c(OC(C)C)cc1C1CCNCC1 [Ceritinib]
- RP2D (Japan) [1]: 750 mg QD
- AUC0-24 ([2]; Day 8): 25700 ng·h/mL
- Cmax ([2]; Day 8): 1220 ng/mL
- Tmax ([2]; Day 8): 6.96 h
- RP2D (Western) [3]: 750 mg QD
- MTD [4]: 750 mg QD
- AUC0-24 [5, 9]: 16,500±4750 ng·h/mL
- Cmax [5, 9]: 800 ± 205 ng/mL
- T1/2 [5, 9]: 41 h
- Tmax [5, 9]: 4 to 6 h

SMILES: C[C@@H](Oc1cc(-c2cnn(C3CCNCC3)c2)cnc1N)c1c(Cl)ccc(F)c1Cl [Crizotonib]
- RP2D (Japan) [1]: 250 mg BID
- RP2D (Western) [3]: 250 mg BID

SMILES: C#Cc1cccc(Nc2ncnc3cc(OCCOC)c(OCCOC)cc23)c1 [Erlotinib]
- RP2D (Japan) [1]: 150 mg QD
- Cmax ([2]; Day 1): 958 ± 457.19 ng/mL
- T1/2 ([2]; Day 1): 25.92 ± 9.31 h
- Tmax ([2]; Day 1): 6.00 ± 8.92 h
- Cmax ([2]; Day 23 or 24): 2384.33 ± 932.43 ng/mL
- T1/2 ([2]; Day 23 or 24): 27.19 ± 9.07 h
- Tmax ([2]; Day 23 or 24): 1.83 ± 0.41 h
- RP2D (Western) [3]: 150 mg QD
- MTD [4]: 150 mg QD
- AUC0-24 [5, 6]: 16510 ± 11020 ng·h/mL
- Cmax [5, 6]: 1136 ± 865 ng/mL
- T1/2 [5, 6]: 20 ± 9.74 h
- AUC0-24 [5, 10]: 38420 ± 29550 ng·h/mL
- Cmax [5, 10]: 2120 ± 1520 ng/mL
- T1/2 [5, 10]: 18.18 ± 5.74 h

SMILES: CO[C@H]1C[C@@H]2CC[C@@H](C)[C@@](O)(O2)C(=O)C(=O)N2CCCC[C@H]2C(=O)O[C@H]([C@H](C)C[C@@H]2CC[C@@H](OCCO)[C@H](OC)C2)CC(=O)[C@H](C)/C=C(\C)[C@@H](O)[C@@H](OC)C(=O)[C@H](C)C[C@H](C)/C=C/C=C/C=C/1C [Everolimus]
- RP2D (Japan) [1]: 10 mg QD

SMILES: CS(=O)(=O)CCNCc1ccc(-c2ccc3ncnc(Nc4ccc(OCc5cccc(F)c5)c(Cl)c4)c3c2)o1 [Lapatinib]
- RP2D (Japan) [1]: 1500 mg QD
- RP2D (Western) [3]: 1250 mg QD

SMILES: COc1cc2nccc(Oc3ccc(NC(=O)NC4CC4)c(Cl)c3)c2cc1C(N)=O [Lenvatinib]
- AUC0-24 ([2]; Day 1): 3150 ng·h/mL
- Cmax ([2]; Day 1): 418 ng/mL
- AUC0-24 ([2]; Day 15): 4140 ng·h/mL
- Cmax ([2]; Day 15): 518 ng/mL
- Tmax ([2]; Day 15): 2.0 h
- AUC0-24 [5, 6]: 3913.8 ng·h/mL
- Cmax [5, 6]: 598.0 ng/mL
- T1/2 [5, 6]: 5.3 h
- Tmax [5, 6]: 1.5 h
- AUC0-24 [5, 7]: 4783.0 ng·h/mL
- Cmax [5, 7]: 579.1 ng/mL
- T1/2 [5, 7]: 5.8 h
- Tmax [5, 7]: 2.8 h

SMILES: Cc1ccc(Nc2nccc(N(C)c3ccc4c(C)n(C)nc4c3)n2)cc1S(N)(=O)=O [Pazopanib]
- RP2D (Western) [3]: 800 mg QD

SMILES: CNC(=O)c1cc(Oc2ccc(NC(=O)Nc3ccc(Cl)c(C(F)(F)F)c3)c(F)c2)ccn1 [Regorafenib]
- RP2D (Japan) [1]: 160 mg QD
- RP2D (Western) [3]: 160 mg QD
- MTD [4]: 160 mg QD
- AUC0-24 [5, 11]: 58270 ng·h/mL
- Cmax [5, 11]: 3904 ng/mL
- T1/2 [5, 11]: 22.23 h
- Tmax [5, 11]: 5.033 h

SMILES: CNC(=O)c1cc(Oc2ccc(NC(=O)Nc3ccc(Cl)c(C(F)(F)F)c3)cc2)ccn1 [Sorafenib]
- RP2D (Japan) [1]: 400 mg BID
- RP2D (Western) [3]: 400 mg BID

SMILES: CCN(CC)CCNC(=O)c1c(C)[nH]c(/C=C2\C(=O)Nc3ccc(F)cc32)c1C [Sunitinib]
- RP2D (Japan) [1]: 50 mg QD
- AUC0-24 ([2]; Day 1): 374 ng·h/mL
- Cmax ([2]; Day 1): 22.8 ng/mL
- Tmax ([2]; Day 1): 7 h
- AUC0-24 ([2]; Day 28): 1406 ng·h/mL
- Cmax ([2]; Day 28): 69.3 ng/mL
- Tmax ([2]; Day 28): 6 h
- RP2D (Western) [3]: 50 mg QD
- MTD [4]: 50 mg QD
- AUC0-24 [5, 6]: 420 ng·h/mL
- Tmax [5, 6]: 5.0 h
- AUC0-24 [5, 7]: 1296 ng·h/mL
- Tmax [5, 7]: 8.5 h

SMILES: COc1cc2c(Nc3ccc(Br)cc3F)ncnc2cc1OCC1CCN(C)CC1 [Vandetanib]
- RP2D (Japan) [1]: 300 mg QD
- RP2D (Western) [3]: 300 mg QD

SMILES: CCCS(=O)(=O)Nc1ccc(F)c(C(=O)c2c[nH]c3ncc(-c4ccc(Cl)cc4)cc23)c1F [Vemurafenib]
- RP2D (Japan) [1]: 960 mg BID
- T1/2 ([2]; Day 1): 12.7 h
- T1/2 ([2]; Day 15): 60.8 h
- RP2D (Western) [3]: 960 mg BID
- MTD [4]: 960 mg BID
- Cmax [5, 8]: 61400 ng/mL
- T1/2 [5, 8]: 34.1 h
- Cmax ([5]; in vivo): 4800 ng/mL
- Tmax ([5]; in vivo): 5.0 h
